Tests used:
[1] = system: HT29 cells; experiment: LDH release (CytoTox-ONE membrane integrity, necrosis); assay type: cell-based, human; conditions: any concentration, in comparison with DMSO control, 12 h
Experimental: All media and chemicals were purchased from Sigma Aldrich (Castle Hill, NSW, Australia) unless otherwise stated. HT29 human colorectal cancer cell line (passage no. 36-42) were cultured (37 °C and 5% CO2) in Dulbecco’s Modified Eagle’s Medium (DMEM) supplemented with 4500 mg/L L-glutamine, 10% FBS, 100 U/mL Penicillin/Streptomycin and 1% Non-essential Amino Acid (100×), until the cells reached 70% confluence. The cells were harvested from flasks by trypsinization (1× Trypsin-EDTA) and were seeded (20,000 cells/well) into clear 96-well plates (Costar®, Mt Martha, VIC, Australia) for measurement of cell viability and white (opaque) 96-well plates (Interpath, Heidelberg West, VIC, Australia) for determination of apoptosis and necrosis. HT29 cells were incubated for 48 h, then the media was removed and the cells were washed with PBS. To treat the cells, synthetic 6-bromoisatin was dissolved in 100% dimethylsulphoxide (DMSO) then diluted in media and added to the cells at a range of concentrations from 0.1 to 0.01 mg/mL, in triplicate (final DMSO concentration of 1%). 1% DMSO controls were also included on each plate. Staurosporine (5 µM) for apoptosis and lysis solution (5 μL/well, Promega, Alexandria, NSW, Australia) for necrosis were added to the white plates in triplicate, as positive controls. All cells were treated for 12 h. […]

[2] = parameters: method as in PMID 20150770; conditions: low pH, simulated digestive fluid; cited from earlier work
[3] = Plasma biochemistry; assay type: in vivo, mice (C57BL/6J)
Experimental: (§1) To detect the early stage prevention of colon cancer, an established AARGC rodent model with injection of the carcinogen AOM was used. Synthetic 6-bromoisatin at 3 different dosages (0.025, 0.05 and 0.1 mg/g body weight) was administered to mice by daily oral gavage in 100 µL sunflower oil, containing 0.02% Vitamin E, for two weeks. The control group was gavaged with sunflower oil (containing 0.02% Vitamin E) only. After two weeks, all mice were injected with a single intraperitoneal (i.p.) injection of AOM at a dosage of 10 mg/kg bodyweight and euthanized 6 h later by cervical dislocation under anesthesia. […] The distal colon of each mouse was excised and fixed in 10% buffered formalin for 24 h and then embedded in paraffin for histological and immunohistological examination.
(§2) Blood samples (0.5–1 mL) were obtained from the mice under anesthesia by cardiac puncture at time of kill and transferred to Gribbles Veterinary Pathology laboratory, Adelaide within heparinized vacutainer tubes then centrifuged to separate into the cell layer for hematology analysis (Abbott Cell Dyn 3700 analyzer, North Ryde, NSW, Australia) and plasma for biochemistry analysis (Siemens Advia 1800 chemistry analyzer, Erlangen, Germany). The plasma levels of the liver enzymes AST, ALT and ALP were assessed as indicators of hepatotoxicity.

[4] = Blood hematology; assay type: in vivo, mice (C57BL/6J)
Experimental: as §1, §2

[5] = 0.025 mg/g, n = 6, 6 h after AOM 10 mg/kg
[6] = 0.05 mg/g, n = 6, 6 h after AOM 10 mg/kg
[7] = 0.1 mg/g, n = 8, 6 h after AOM 10 mg/kg

For `O=C1Nc2cc(Br)ccc2C1=O` [6-bromoisatin, 6-Bromoindole-2,3-dione], the “level of lactate dehydrogenase (LDH)” value [1] is given as “No increase”, the stability [2] is given as “stable at low pH” and the Albumin [3, 5] is given as 28.7 ± 1.5 g/L. The Calcium [3, 5] was 2.2 ± 0.1 mmol/L, the “Creat. (Creatinine)” value [3, 5] was 13.3 ± 0.8 µmol/L and the Globulin [3, 5] was 18.0 ± 1.4 g/L. For the same compound, the “NA/K (Sodium/Potassium ratio)” value [3, 5] was 29.1 ± 1.2, the Potassium [3, 5] was 5.1 ± 0.2 mmol/L and the Protein [3, 5] was 46.7 ± 2.8 g/L. The Sodium [3, 5] was 147.7 ± 0.5 mmol/L, the Urea [3, 5] was 9.7 ± 1.6 mmol/L and the Albumin [3, 6] was 27.8 ± 1.5 g/L. The Calcium [3, 6] was 2.2 ± 0.04 mmol/L, the “Creat. (Creatinine)” value [3, 6] was 14.7 ± 0.5 µmol/L and the Globulin [3, 6] was 18.3 ± 0.8 g/L. The “NA/K (Sodium/Potassium ratio)” value [3, 6] was 33.5 ± 2.7, the Potassium [3, 6] was 4.5 ± 0.4 mmol/L and the Protein [3, 6] was 46.2 ± 1.9 g/L. It also gave a Sodium [3, 6] of 149.7 ± 1.4 mmol/L, a Urea [3, 6] of 9.9 ± 1.4 mmol/L and an Albumin [3, 7] of 28.2 ± 1.5 g/L. For the same compound, the Calcium [3, 7] was 2.2 ± 0.1 mmol/L, the “Creat. (Creatinine)” value [3, 7] was 14.6 ± 1.2 µmol/L and the Globulin [3, 7] was 17.9 ± 1.2 g/L. The “NA/K (Sodium/Potassium ratio)” value [3, 7] was 34.1 ± 3.6, the Potassium [3, 7] was 4.3 ± 0.4 mmol/L and the Protein [3, 7] was 46.1 ± 2.2 g/L. The Sodium [3, 7] was 149.7 ± 1.2 mmol/L, the Urea [3, 7] was 9.6 ± 1.2 mmol/L and the “Hct (Hematocrit)” value [4, 5] was 0.4 ± 0.01 L/L. The Hemoglobin [4, 5] was 139.7 ± 5.1 g/L, the Lymphocytes [4, 5] was 3.3 ± 1.1 ×10^9/L and the “MCH (Mean Corpuscular Hemoglobin)” value [4, 5] was 15.0 ± 0.0 pg. The “MCHC (Mean Corpuscular Hemoglobin Concentration)” value (shortened to “MCHC”) [4, 5] was 322.7 ± 1.5 g/L, the “MCV (Mean Corpuscular Volume)” value [4, 5] was 46.5 ± 0.8 fL and the Monocytes [4, 5] was 0.2 ± 0.3 ×10^9/L. The Neutrophils [4, 5] was 1.6 ± 0.8 ×10^9/L, the Red cell count [4, 5] was 9.3 ± 0.4 ×10^12/L and the White cell count [4, 5] was 5.2 ± 1.8 ×10^9/L. For the same compound, the “Hct (Hematocrit)” value [4, 6] was 0.4 ± 0.01 L/L, the Hemoglobin [4, 6] was 135.0 ± 3.5 g/L and the Lymphocytes [4, 6] was 3.4 ± 0.8 ×10^9/L. For the same compound, the “MCH (Mean Corpuscular Hemoglobin)” value [4, 6] was 15.0 ± 0.0 pg, the “MCHC” value [4, 6] was 319.0 ± 2.8 g/L and the “MCV (Mean Corpuscular Volume)” value [4, 6] was 46.7 ± 1.2 fL. The Monocytes [4, 6] was 0.2 ± 0.1 ×10^9/L, the Neutrophils [4, 6] was 2.2 ± 1.3 ×10^9/L and the Red cell count [4, 6] was 9.1 ± 0.4 ×10^12/L. For the same compound, the White cell count [4, 6] was 5.8 ± 1.5 ×10^9/L, the “Hct (Hematocrit)” value [4, 7] was 0.4 ± 0.02 L/L and the Hemoglobin [4, 7] was 138.4 ± 5.7 g/L. The Lymphocytes [4, 7] was 2.3 ± 0.9 ×10^9/L, the “MCH (Mean Corpuscular Hemoglobin)” value [4, 7] was 15.0 ± 0.0 pg and the “MCHC” value [4, 7] was 319.8 ± 3.0 g/L. The “MCV (Mean Corpuscular Volume)” value [4, 7] was 46.4 ± 0.7 fL, the Monocytes [4, 7] was 0.1 ± 0.1 ×10^9/L and the Neutrophils [4, 7] was 0.8 ± 0.7 ×10^9/L. For the same compound, the Red cell count [4, 7] was 9.4 ± 0.5 ×10^12/L and the White cell count [4, 7] was 3.2 ± 1.1 ×10^9/L.

Reference: paper PMC3917258, “6-Bromoisatin Found in Muricid Mollusc Extracts Inhibits Colon Cancer Cell Proliferation and Induces Apoptosis, Preventing Early Stage Tumor Formation in a Colorectal Cancer Rodent Model” (Marine Drugs, 2013)
